From patent US10548316B2, “Diarylazole compound and harmful organism control agent” (Nippon Soda Co., Ltd., priority 2015, dated 2020)

How the values were obtained:
Type in all cases: in vivo
Plutella xylostella = assay: Efficacy test against Plutella xylostella; details: 72 h, cabbage leaves soaked, second-instar larvae, after 3 days, read-out: mortality rate
Procedure: (§1) 5 parts of the compound of the present invention, 93.6 parts of dimethylformamide, and 1.4 parts of polyoxyethylene alkylaryl ether were mixed and dissolved to prepare an emulsion (I) of 5% of the active ingredient.
(§2) The insect mortality rate and the control rate were calculated by the following formula. Insect mortality rate (%)=(number of dead insects/number of sample insects)×100 Prevention rate=[1−(Nt)/(Nc)]×100
(§3) Emulsion (I) was diluted with water so that the concentration of the compound of the present invention reaches 125 ppm. Cabbage leaves were soaked in the diluted liquid for 30 seconds. Then the cabbage leaves were put on Petri dishes, followed by inoculating 5 second-instar larvae of Plutella xylostella. The Petri dishes were placed in a thermostatic chamber with a temperature was 25° C. and a humidity of 60%. Life or death judgement was performed after 3 days were passed, and the insect mortality rate was calculated. The test was repeated twice.

Spodoptera litura = assay: Efficacy test against Spodoptera litura; details: 144 h, cabbage leaves soaked, second-instar larvae, after 6 days, read-out: insect mortality rate
Procedure: as §1, §2
as §3, with “of Spodoptera litura.” for “of Plutella xylostella.”, “after 6” for “after 3”

Lucilia cuprina larvae = assay: Contact/feeding effect test on Lucilia cuprina larvae; details: 1000 ppm in horse meat, 48 hours, read-out: insect mortality rate
Procedure: A DMSO solution of the compound of the present invention was mixed with horse meat to obtain a mixture with a concentration of 1000 ppm. 20 Lucilia cuprina larvae were introduced into a test tube with the mixture. The tube was incubated in a thermostatic chamber with a temperature of 28° C. and a humidity of 80%, and life and death judgement was performed on the larvae 48 hours after the start of the test. The test was repeated twice.

Phyllotreta striolata = assay: Efficacy test against Phyllotreta striolata; details: 168 h, spray on bok choy seedlings, adults, 7 days after releasing, read-out: insect mortality rate
Procedure: as §1, §2
Emulsion (I) was diluted with water so that the compound of the present invention reaches 125 ppm to prepare a test solution. The above diluted solution was sprayed on bok choy seedlings (seventh true leaf development stage) planted in No. 3 pots. After air-drying, the bok choy seedlings were put in a plastic cup and 10 adult Phyllotreta striolata were released therein. The plastic cup was stored in a thermostatic chamber with a temperature of 25° C. and a humidity of 65%, and life or death judgment was performed 7 days after releasing Phyllotreta triolata, and the insect mortality rate was calculated by the formula. The test was repeated twice.

Aedes aegypti larvae = assay: Contact/feeding effect test on Aedes aegypti larvae; details: final concentration of 10 ppm, first-instar larvae, 48 hours, read-out: insect mortality rate
Procedure: A DMSO solution of the compound of the present invention was diluted with water to obtain a diluted solution with a concentration of 100 ppm. 10 first-instar larvae of Aedes aegypti were placed in each well of a 96-well microtiter plate together with breeding water, and 1/10 volume of the diluted solution with a concentration of 100 ppm was added so that the test was carried out at a final concentration of 10 ppm. The microtiter plate was incubated in a thermostatic chamber with a temperature of 28° C. and a humidity of 80%, and life or death judgement was performed on the larvae was investigated 48 hours after the chemical treatment. The test was repeated twice.

Rhipicephalus microplus = assay: Contact effect test on Rhipicephalus microplus; details: larvae, 24 hours after the chemical treatment, read-out: insect mortality rate
Procedure: A DMSO solution of the compound of the present invention was diluted with water to obtain a test solution with a concentration of 100 ppm. This chemical solution was dropped into a container containing 20 Rhipicephalus microplus larvae, and then incubated in a thermostatic chamber with a temperature of 28° C. and a humidity of 80%. Life or death judgement was performed on the larvae 24 hours after the chemical treatment. The test was repeated twice.

Musca domestica = assay: Efficacy test against Musca domestica; details: 100 ppm on cube sugar, adult female, after 24 hours, read-out: insect mortality rate
Procedure: as §2
The compound of the present invention was diluted with acetone, followed by dropping to 1 g of cube sugar so that the concentration reaches to 100 ppm. The cube sugar was placed in a plastic cup and 10 adult female Musca domestica were released therein, followed by putting a lid on the cup. The cup was kept at 25° C., and life or death judgement was performed after 24 hours was passed from the releasing of Musca domestica, and the insect mortality rate was calculated by the formula. The test was repeated twice.

Aphis craccivora = assay: Efficacy test against Aphis craccivora; details: 96 h, spray on infested cowpea plants, nymphs, 4 days after spraying, read-out: mortality rate
Procedure: as §1, §2
Cowpea plants were raised in No. 3 pots and the first true leaves were inoculated with Aphis craccivora nymphs. Emulsion (I) was diluted with water so that the concentration of the compound of the present invention reaches 125 ppm, followed by spraying the diluted liquid on the cowpea plants infested with Aphis craccivora nymphs. The cowpea plants were then placed in a thermostatic chamber with a temperature of 25° C. and a humidity of 60%. Life or death judgement was performed after 4 days were passed from the spraying, and the insect mortality rate of Aphis craccivora was calculated. The test was repeated twice.

Culex pipiens = assay: Efficacy test against Culex pipiens; details: Culex pipiens, 24 h, read-out: insect mortality rate
Procedure: as §1, §2
Emulsion (I) was diluted with water so that the concentration of the compound of the present invention reaches 2 ppm to prepare a chemical solution for test. 20 first-instar larvae of Culex pipiens were released into 100 ml of the chemical solution for test, then the number of dead insects was calculated after 1 day was passed, and the insect mortality rate was calculated by the formula. The test was repeated twice.

Ornithodorus moubata = assay: Feeding effect test against Ornithodorus moubata; details: 10 ppm in defibrin blood of sheep; third-nymphs; 14 days after the blood sucking
Procedure: A DMSO solution of the compound of the present invention was mixed with a defibrin blood of sheep to obtain a mixed solution with a concentration of 10 ppm. 2 ml of this mixed solution was placed in a container and capped with a parafilm membrane. Then, 20 third-nymphs of Ornithodorus moubata ere released to suck the blood through the parafilm membrane for about 30 minutes. Then, the nymphs were transferred to a storage container and incubated in a thermostatic chamber with a temperature of 28° C. and a humidity of 80%, and life or death judgement and developmental stage-investigation was performed 14 days after the blood sucking. The test was repeated twice.

Rhopalosiphum padi = assay: Efficacy test against Rhopalosiphum padi (seed treatment); details: 0.1 g compound per 10 g wheat seeds, adults released 7 days after seeding, counted after 6 days
Procedure: as §2
Nt: number of parasites in spray-treatment area
Nc: number of parasites in control area
0.1 g of each compound of the present invention was diluted with 2 ml of acetone to prepare chemical solutions for test. 10 g of wheat seeds was added to the chemical solution for test and air dried, followed by seedling 100 seeds in a planter. After keeping the planter in a warm room with a temperature of 25° C. for 7 days, 50 adult Rhopalosiphum padi were released in the planter. The number of surviving parasitized Rhopalosiphum padi was investigated after 6 days were passed, and the prevention rate was calculated by the formula. The test was repeated twice.

Pseudaletia separata = assay: Efficacy test against Pseudaletia separata (artificial diet); details: in vivo
Procedure: as §1, §2
0.8 g of commercially available artificial diet (Insecta US, manufactured by Nosan Corporation) and 1 μl of emulsion (1) were well mixed and 0.2 g of the resulting mixture was packed in a plastic test container (1.4 ml) per each treatment group to prepare test feeds.
2 second-instar larvae of Pseudaletia separata were inoculated into each treatment group and sealed with a plastic lid. The plastic test containers were placed in a thermostatic chamber with a temperature of 25° C., and the insect mortality rate and the food intake amount were investigated on the fifth day. The test was repeated twice.
Further, a test under the same conditions except that the compound of the present invention was removed from emulsion (I) was conducted as a solvent control group.

SMILES	mortality at 125 ppm (Plutella xylostella) [%]	mortality at 125 ppm (Spodoptera litura) [%]	mortality at 1000 ppm (Lucilia cuprina larvae) [%]	mortality at 125 ppm (Phyllotreta striolata) [%]	mortality at 10 ppm (Aedes aegypti larvae) [%]	mortality at 100 ppm (Rhipicephalus microplus) [%]	mortality at 100 ppm (Musca domestica) [%]	mortality at 125 ppm (Aphis craccivora) [%]	mortality at 2 ppm (Culex pipiens) [%]	insect mortality rate (Ornithodorus moubata) [%]	prevention rate (Rhopalosiphum padi) [%]	insect mortality rate (Pseudaletia separata) [%]
CCS(=O)(=O)c1cc(C(F)(F)F)ccc1-n1ncc(-c2ccc(OC(F)(F)F)cc2)c1N [Compound 1-12, 1-(2-(ethylsulfonyl)-4-(trifluoromethyl)phenyl)-4-(4-(trifluoromethoxy)phenyl)-1H-pyrazol-5-amine]	≥ 80	≥ 80	≥ 90	≥ 80	≥ 90	≥ 90	≥ 80	≥ 80	100	≥ 90		
CCS(=O)(=O)c1cc(C(F)(F)F)ccc1-n1ncc(-c2ccc(OC(F)(F)F)cc2)c1Cl [Compound 1-17, 5-chloro-1-(2-(ethylsulfonyl)-4-(trifluoromethyl)phenyl)-4-(4-(trifluoromethoxy)phenyl)-1H-pyrazole]	≥ 80	≥ 80		≥ 80				≥ 80				
CCS(=O)(=O)c1cc(C(F)(F)F)ccc1-n1ncc(-c2ccc(C(F)(F)C(F)(F)F)nc2)c1N [Compound 1-33]											≥ 80	100
